Assay: in vitro
Details: human, hela cells, % viability

## CC(=O)c1ccccc1-c1cnc(N(C)S(C)(=O)=O)c(C(=O)NCCc2ccccc2)c1 [CBK076516]
  viability at 28.5 h, 10 µM: 93.9%

## Oc1ccc(CCNc2ncnc3[nH]cnc23)cc1 [CBK017724C]
  viability at 28.5 h, 10 µM: 101%

## CCCc1cc(C(=O)N2CCN(C)C3(CCNC(=O)CC3)C2)ccn1 (stereo not drawn) [CBK306815]
  viability at 28.5 h, 10 µM: 96.2%

## Cc1cccn2c(CN3CC(O)C3)c(C(=O)N3CCOCC3)nc12 [CBK306857]
  viability at 28.5 h, 10 µM: 104%

## O=C(NCc1ccccn1)c1cncc(Br)c1 [CBK265226]
  viability at 28.5 h, 10 µM: 88.1%

## Cc1cc(C)n2ncc(C(=O)N3CCCCC3c3ccccn3)c2n1 (stereo not drawn) [CBK307257]
  viability at 28.5 h, 10 µM: 90.4%

## O=C(CC1CCCC1)N1CCC(c2nnc3n2CCCCC3)CC1 [CBK284630]
  viability at 28.5 h, 10 µM: 84.6%

## O=C(O)c1cccc(CSc2nnc(-c3ccncc3)o2)c1 [CBK266310]
  viability at 28.5 h, 10 µM: 106%

## Cc1nn(CC(=O)NC2CCCCC2)c(=O)c2cc3ccsc3n12 [CBK284080]
  viability at 28.5 h, 10 µM: 94.9%

## CN1CCCN(Cc2ccc([N+](=O)[O-])s2)CC1 [CBK261558]
  viability at 28.5 h, 10 µM: 94%

## CCN(CC)C(=O)N1CCN(Cc2cccc(OC)c2)C[C@@H]1C [CBK284268]
  viability at 28.5 h, 10 µM: 78.8%

## Nc1c(C(=O)O)nnn1Cc1ccccc1 [CBK263796]
  viability at 28.5 h, 10 µM: 95.6%

## COc1ccc([C@H](O)[C@@H]2CCCN(C(=O)OC(C)(C)C)C2)cc1 [CBK284311]
  viability at 28.5 h, 10 µM: 83.4%

## Cc1ccc(S(=O)(=O)N(CC(=O)N/N=C\c2ccc3c(c2)OCO3)c2cccc3cccnc23)cc1 [CBK262478]
  viability at 28.5 h, 10 µM: 101%

## C#CCN1C(=O)C2(OCCO2)c2cccc(C)c21 [CBK019069]
  viability at 28.5 h, 10 µM: 95.1%

## Cn1c(-c2ccc(CN3CCCC3)cc2)cc2oc(-c3ccccc3SCCO)nc2c1=O [CBK200427T]
  viability at 28.5 h, 10 µM: 94.7%

## O=C(Cn1c(C2CCNCC2)cc2cccnc21)N1CCCC1 [CBK285013]
  viability at 28.5 h, 10 µM: 96.3%

## Cc1nc(NC(=O)CCN2C(=O)COc3ccccc32)sc1-c1n[nH]c(=S)n1C [CBK295362]
  viability at 28.5 h, 10 µM: 98.5%

## O=C1CC(C(=O)Nc2ccc(Cl)cc2)c2c(nc(SCc3ccccc3F)[nH]c2=O)N1 (stereo not drawn) [CBK294437]
  viability at 28.5 h, 10 µM: 93.6%

## Cc1cc2nc3s/c(=C\c4ccc(-c5ccc(O)c(C(=O)O)c5)o4)c(=O)n3c2cc1C [CBK262538]
  viability at 28.5 h, 10 µM: 100%

## CC1(C)Cc2nc3sc(C(=O)O)c(NC(=O)c4ccccc4)c3cc2CO1 [CBK266166]
  viability at 28.5 h, 10 µM: 98.4%

## CC(C)(C)c1cc(CCC(c2cc(C(C)(C)C)c(O)c(C(C)(C)C)c2)c2cc(C(C)(C)C)c(O)c(C(C)(C)C)c2)cc(C(C)(C)C)c1O [CBK261271]
  viability at 28.5 h, 10 µM: 92.9%

## O=C1CC(c2ccco2)CC(=O)C1=CNCCN1CCN(C(=O)Nc2ccc(Cl)cc2)CC1 (stereo not drawn) [CBK264743]
  viability at 28.5 h, 10 µM: 80.2%

## O=C(NCCCn1ccnc1)c1cnn2c(C(F)(F)F)cc(-c3cccs3)nc12 [CBK263060]
  viability at 28.5 h, 10 µM: 88.7%

## CC1CCN(CC(CS(=O)(=O)c2ccc([N+](=O)[O-])cc2)N2CCC(C)CC2)CC1 (stereo not drawn) [CBK267506]
  viability at 28.5 h, 10 µM: 86.2%

## O=C(O)CCn1ncc2ccccc21 [CBK262257]
  viability at 28.5 h, 10 µM: 89.8%

## CCCC1=NN(c2ccc([N+](=O)[O-])cc2)C(=O)/C1=C/NC1CC(C)(C)NC(C)(C)C1 [CBK262896]
  viability at 28.5 h, 10 µM: 84.9%

## Cc1ccc(Nc2cc(-c3cccnc3)ncn2)cc1NS(C)(=O)=O [CBK091147]
  viability at 28.5 h, 10 µM: 91.2%

## Cc1ccc(CN(CC(=O)N2CCCCC2)S(=O)(=O)c2ccc(C)cc2)cc1 [CBK264646]
  viability at 28.5 h, 10 µM: 91.6%

## CC1CCc2n[nH]c(C(=O)NC3CN4CCC3CC4)c2C1 (stereo not drawn) [CBK283193]
  viability at 28.5 h, 10 µM: 108%

## CC(C)(C)c1cc(-c2nc3ccccc3[nH]2)c(O)c(-c2nc3ccccc3[nH]2)c1 [CBK266084]
  viability at 28.5 h, 10 µM: 90%

## O=C(C1CCC1)N1CCC(n2c(=O)[nH]c3ccccc32)CC1 [CBK149709]
  viability at 28.5 h, 10 µM: 108%

## O=C(Nc1ccccc1C(F)(F)F)c1ccc(-n2cnnn2)cc1 [CBK300521]
  viability at 28.5 h, 10 µM: 86.8%

## Brc1cccc(/C=N/N2CCN(Cc3cccc4ccccc34)CC2)c1 [CBK263011]
  viability at 28.5 h, 10 µM: 98%

## O=C(CN(c1ccccc1)S(=O)(=O)c1ccccc1[N+](=O)[O-])NC1CCCCC1 [CBK262328]
  viability at 28.5 h, 10 µM: 89.3%

## Cc1nn(C2CCCO2)c(=O)nc1N (stereo not drawn) [CBK021028]
  viability at 28.5 h, 10 µM: 101%

## CS(=O)(=O)N1CC2(CCN(Cc3cccc4cccnc34)CC2)c2ccccc21 [CBK136955]
  viability at 28.5 h, 10 µM: 93.2%

## Cc1cc(C)n(CC(=O)Nc2cccc(CCc3ccncc3)c2)c(=O)n1 [CBK285555]
  viability at 28.5 h, 10 µM: 105%

## COc1ccc2[nH]cc(C(C(=O)O)N3CCN(Cc4ccccn4)CC3)c2c1 (stereo not drawn) [CBK286846]
  viability at 28.5 h, 10 µM: 80.5%

## Fc1cc(Br)ccc1-c1cn(-c2ccc(Oc3ccccc3)cc2)nn1 [CBK113145]
  viability at 28.5 h, 10 µM: 89.5%

## CC(C)N(C(=O)Cn1c(-c2ccco2)cc2cccnc21)C(C)C [CBK282682]
  viability at 28.5 h, 10 µM: 99.4%

## Cn1c(SCC(=O)n2c3c(c4ccccc42)CCCC3)nnc1-c1ccco1 [CBK267370]
  viability at 28.5 h, 10 µM: 99.2%

## COc1cccc(CNc2nccnc2-c2cccs2)c1OC [CBK036784]
  viability at 28.5 h, 10 µM: 95.7%

## Cc1ccc(C)c(NC(=S)NCCc2ccc(S(N)(=O)=O)cc2)c1 [CBK264879]
  viability at 28.5 h, 10 µM: 100%

## COc1ccc(CNc2cc(/C=C/c3ccccc3)nc3ccnn23)cc1 [CBK037075]
  viability at 28.5 h, 10 µM: 103%

## CC(C)(CNC(=O)Cn1cc(C(=O)Nc2ccc(F)cc2)ccc1=O)c1cccc(F)c1 [CBK286079]
  viability at 28.5 h, 10 µM: 99.6%

## O=C(O)c1cc(S(=O)(=O)NCc2ccco2)ccc1Cl [CBK058905]
  viability at 28.5 h, 10 µM: 85.4%

## O=C(O)CCCN1C(=O)/C(=C\c2ccccn2)SC1=S [CBK264552]
  viability at 28.5 h, 10 µM: 92.4%

## CC(=O)Nc1ccc(NC(=O)CCC(=O)O)cc1C [CBK265395]
  viability at 28.5 h, 10 µM: 95.3%

## O=C(O)c1cccc(Sc2cccc(C(F)(F)F)n2)c1 [CBK093592]
  viability at 28.5 h, 10 µM: 98%

## O=C(O)c1cc(-c2ccc(/C=C3\SC(=S)N(Cc4cccnc4)C3=O)o2)ccc1Cl [CBK264712]
  viability at 28.5 h, 10 µM: 112%

## CC(=O)N(C)c1ccc(NS(=O)(=O)c2cc(C)c(Cl)cc2C)cc1 [CBK045298]
  viability at 28.5 h, 10 µM: 94.3%

## Cc1ccc(S(=O)(=O)Nc2nnc(SCC(=O)Nc3ccc4c(c3)OCO4)s2)cc1 [CBK026675]
  viability at 28.5 h, 10 µM: 100%

## O=C(Cc1ccccc1[N+](=O)[O-])Nc1ccc(S(=O)(=O)N2CCCC2)cc1 [CBK265292]
  viability at 28.5 h, 10 µM: 87.1%

## Oc1ccc2cc(-c3cccc(C(F)(F)F)c3)cnc2n1 [CBK081285]
  viability at 28.5 h, 10 µM: 59.5%

## Cc1ccc(CNC(=O)Cn2nnc(-c3ccc(CN4CCCC(C(F)(F)F)C4)cc3)n2)cc1 (stereo not drawn) [CBK144562C]
  viability at 28.5 h, 10 µM: 109%

## Cc1ccc(C(C)NC(=O)C2CCCN(S(C)(=O)=O)C2)c(C)c1 (stereo not drawn) [CBK304349]
  viability at 28.5 h, 10 µM: 94.1%

## NCC1CCN(c2cc(C(F)(F)F)c3scc(C(=O)NCc4cccc(F)c4F)c3n2)CC1 [CBK036391T]
  viability at 28.5 h, 10 µM: 71.6%

## NC(=O)COc1ccccc1OCC(N)=O [CBK261032]
  viability at 28.5 h, 10 µM: 87.5%

## CC(=O)NC[C@H]1CN(c2ccc3c(c2)CCN(C(=O)Oc2ccccc2)CC3)C(=O)O1 [CBK018498]
  viability at 28.5 h, 10 µM: 91.2%

## OCCCn1cc(CN2CCC(CO)C2)c2ccccc21 (stereo not drawn) [CBK282114]
  viability at 28.5 h, 10 µM: 98.6%

## COCCN(Cc1ccncc1)C(=O)c1cnc2ccnn2c1C [CBK306965]
  viability at 28.5 h, 10 µM: 92.3%

## O=C(COc1ccc(S(=O)(=O)N2CCCCC2)cc1)Nc1ccc2c(c1)OCCO2 [CBK268205]
  viability at 28.5 h, 10 µM: 102%

## COc1ccccc1-c1nnc(SCC(=O)Nc2nccs2)o1 [CBK287390]
  viability at 28.5 h, 10 µM: 107%

## COc1ccccc1Cn1nc2nnc(-c3ccc(F)cc3)c(-c3ccc(F)cc3)n2c1=O [CBK286184]
  viability at 28.5 h, 10 µM: 97.7%

## CC(=O)NC1(c2ccc(F)cc2)CCN(CC(=O)NCC2CC2)CC1 [CBK283614]
  viability at 28.5 h, 10 µM: 93.9%

## O=C(c1cnn(C(=O)c2ccc3c(=O)n4c(nc3c2)CCC4)c1)c1ccccc1O [CBK295145]
  viability at 28.5 h, 10 µM: 95.7%

## Cc1cc(NC(=O)COc2ccccc2)nc2c1c(=O)oc1ccccc12 [CBK287436]
  viability at 28.5 h, 10 µM: 99.8%

## O=C(NCc1ccco1)c1ccc(-c2ccoc2)nc1 [CBK156279]
  viability at 28.5 h, 10 µM: 105%

## O=C(C/C=N/OCc1ccccc1)c1sccc1Cl [CBK021611]
  viability at 28.5 h, 10 µM: 96%

## Cc1ccc(-n2c(SCC(=O)N3CCc4ccccc43)nnc2-c2ccccc2O)c(C)c1 [CBK268793]
  viability at 28.5 h, 10 µM: 108%

## COc1ccccc1Cc1cccc(C2CCCN2C(=O)c2ccc(F)cc2)n1 (stereo not drawn) [CBK286239]
  viability at 28.5 h, 10 µM: 99.1%

## COc1ccc(C[C@@H]2NC(=O)[C@@H]3CN(C(=O)c4ccc(OC)cc4)CCN3C2=O)cc1 [CBK289598]
  viability at 28.5 h, 10 µM: 94.1%

## COc1ccc(C(NC(=O)Cn2cccnc2=O)C2CC(O)C2)cn1 (stereo not drawn) [CBK307527]
  viability at 28.5 h, 10 µM: 83.4%

## O=C(NCCCc1ccccn1)c1cc(-c2cccs2)no1 [CBK282652]
  viability at 28.5 h, 10 µM: 63.9%

## O=C(NCC1(c2ccccc2F)CCCC1)c1cc[nH]c(=O)c1 [CBK281378]
  viability at 28.5 h, 10 µM: 112%

## O=C(NCCn1nc(-c2ccco2)ccc1=O)c1cccs1 [CBK283704]
  viability at 28.5 h, 10 µM: 92.5%

## CC(C)(CN1CCCC1)NC(=O)N1CCN(Cc2cccc(O)c2)CC1 [CBK307380]
  viability at 28.5 h, 10 µM: 86.6%

## CCn1c(C)cc2cc(NS(=O)(=O)c3cn(C)nc3C)ccc21 [CBK282789]
  viability at 28.5 h, 10 µM: 93.5%

## Oc1cc2nnnn2nc1-c1ccccc1 [CBK019550]
  viability at 28.5 h, 10 µM: 101%

## COC(=O)c1sc2cc(C(F)(F)F)cnc2c1-c1cccnc1 [CBK089885]
  viability at 28.5 h, 10 µM: 112%

## Cc1cc(-c2cn3cc(C(=O)NCCN(C)C)nc3c(=O)n2C)c(C)o1 [CBK307160]
  viability at 28.5 h, 10 µM: 94.3%

## COc1ccc(-c2cc(C(=O)Nc3nc4ccccc4[nH]3)cnc2-c2ccc(F)cc2)cn1 [CBK036617]
  viability at 28.5 h, 10 µM: 98.6%

## Cc1cc(C)c2c(c1)-c1c(ssc1=S)C(C)(C)N2C(=O)CSc1nnc[nH]1 [CBK263038]
  viability at 28.5 h, 10 µM: 88.5%

## O=C(Nc1ccccc1C(=O)c1ccccc1)c1ccccn1 [CBK288150]
  viability at 28.5 h, 10 µM: 89.1%

## O=C(CSc1ncnc2sc3c(c12)CCC3)Nc1nsc(-c2ccc(Cl)cc2)n1 [CBK266484]
  viability at 28.5 h, 10 µM: 118%

## COC(=O)c1c(NC(=O)c2cnccn2)sc2c1CCC(C)C2 (stereo not drawn) [CBK262654]
  viability at 28.5 h, 10 µM: 96.2%
